Experimental data as given in patent publication US5621007A, “Method for regulation of transmembrane chloride conductance” (Bristol-Myers Squibb Company, priority 1995, dated 1997).
“Also recorded” adds a separate entry of the source. Where two headings read alike, the source gives them in different places.

Legend:
[1] = system: ΔF508 CFTR; experiment: Whole-cell patch clamp, Vero cells expressing ΔF508 CFTR; format: cell-based
[2] = target: T1, wild-type CFTR (Homo sapiens, UniProt P13569); experiment: 125I efflux from Vero cells expressing wild-type CFTR; format: cell-based
T1 sequence (P13569 whole entry): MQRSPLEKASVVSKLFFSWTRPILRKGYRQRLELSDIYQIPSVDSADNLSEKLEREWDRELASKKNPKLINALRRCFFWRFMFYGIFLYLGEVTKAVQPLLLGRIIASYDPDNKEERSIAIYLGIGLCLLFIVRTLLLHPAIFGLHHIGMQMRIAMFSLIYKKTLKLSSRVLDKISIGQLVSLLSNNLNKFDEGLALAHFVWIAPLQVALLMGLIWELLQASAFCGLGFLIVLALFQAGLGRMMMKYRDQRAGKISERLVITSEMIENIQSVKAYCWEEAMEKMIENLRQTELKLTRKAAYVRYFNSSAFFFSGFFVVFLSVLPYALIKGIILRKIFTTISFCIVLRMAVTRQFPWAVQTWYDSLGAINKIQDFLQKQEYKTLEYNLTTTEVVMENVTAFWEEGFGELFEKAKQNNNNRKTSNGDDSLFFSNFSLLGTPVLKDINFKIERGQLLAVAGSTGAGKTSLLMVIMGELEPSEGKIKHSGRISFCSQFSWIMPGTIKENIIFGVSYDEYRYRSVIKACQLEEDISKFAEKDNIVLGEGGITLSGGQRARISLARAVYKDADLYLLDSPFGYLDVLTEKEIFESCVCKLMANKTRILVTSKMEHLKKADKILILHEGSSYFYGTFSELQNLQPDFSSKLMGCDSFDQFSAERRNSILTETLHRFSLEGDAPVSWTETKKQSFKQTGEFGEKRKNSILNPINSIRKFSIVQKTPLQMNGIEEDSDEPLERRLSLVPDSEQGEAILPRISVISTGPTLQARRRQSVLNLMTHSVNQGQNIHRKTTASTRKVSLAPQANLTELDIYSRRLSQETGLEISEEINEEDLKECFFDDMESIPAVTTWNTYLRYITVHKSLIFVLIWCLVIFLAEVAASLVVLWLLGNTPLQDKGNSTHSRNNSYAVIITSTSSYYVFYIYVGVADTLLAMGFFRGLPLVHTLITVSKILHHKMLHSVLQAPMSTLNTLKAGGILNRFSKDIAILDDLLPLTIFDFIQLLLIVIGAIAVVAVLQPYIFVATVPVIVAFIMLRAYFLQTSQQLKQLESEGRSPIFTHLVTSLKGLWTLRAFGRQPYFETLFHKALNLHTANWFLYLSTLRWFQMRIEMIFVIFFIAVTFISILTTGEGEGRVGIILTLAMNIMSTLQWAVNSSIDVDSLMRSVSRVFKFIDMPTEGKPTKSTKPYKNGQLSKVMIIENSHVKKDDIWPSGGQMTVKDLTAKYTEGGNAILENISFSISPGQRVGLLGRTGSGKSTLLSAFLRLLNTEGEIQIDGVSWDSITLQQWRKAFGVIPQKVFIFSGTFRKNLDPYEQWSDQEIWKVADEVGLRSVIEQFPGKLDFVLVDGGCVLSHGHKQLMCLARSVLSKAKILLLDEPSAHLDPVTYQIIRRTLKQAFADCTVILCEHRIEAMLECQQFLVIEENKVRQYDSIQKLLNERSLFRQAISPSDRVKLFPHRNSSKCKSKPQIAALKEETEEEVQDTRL

[3] = system: wild-type CFTR Cl- channels; experiment: Outside-out single channel patch clamp, Vero cells expressing wild-type CFTR; format: cell-based; conditions: sub-micromolar to micromolar NS004, outside-out excised patches
[4] = system: mock transfected cells; experiment: Whole-cell patch clamp, mock transfected Vero cells; format: cell-based, monkey
[5] = system: uninjected or H2 O-injected oocytes; experiment: Two-electrode voltage clamp, uninjected or H2O-injected oocytes (control); format: cell-based, Xenopus laevis; conditions: NS004, uninjected or H2O-injected oocytes
Method: Oocytes were surgically removed from Xenopus laevis anesthetized with 0.12% 3-aminobenzoic acid ethyl ester (Tricaine). Oocytes were first rinsed with Ca^2+ -free OR2 medium (82.5 mM NaCl, 1 mM KCl, 1 mM MgCl2, 5 mM HEPES, pH 7.5 with NaOH) followed by incubation in collagenase (1.5 mg/ml prepared in Ca^2+ -free OR2 medium) for 4 hours at room temperature. After enzyme treatment, cells were rinsed 8× with OR2 medium and then rinsed again 8× with ND96 medium (90 mM NaCl, 1 mM KCl, 1 mM CaCl2, 1 mM MgCl2, 5 mM HEPES, pH 7.5 with NaOH). Oocytes were stored overnight at 17° C. Late stage V and early stage VI cells that were visualized to be fully defolliculated to the vitelline envelope were selected for microinjection.
Electrophysiological evaluation of the effects of putative CFTR openers were assessed in oocytes expressing wild-type and ΔF508 CFTR constructs using standard two-electrode voltage clamp techniques. Generally, a family of currents was generated under control conditions (incubated in Modified Barth's Solution, MBS, a typical physiological saline medium, in the absence of drugs), with no current or small currents generated under drug-free conditions. […] Data were collected and analyzed using a computer equipped with an A/D interface and appropriate acquisition and analysis software.

[6] = system: Control cells (not expressing CFTR constructs); experiment: Outside-out patch clamp, control Vero cells not expressing CFTR constructs; format: cell-based, monkey
Method: Subsequently, various concentrations of NS004 were tested for direct effects on ^125 I efflux in cells expressing wild-type and ΔF508 CFTR constructs, the ability of NS004 to affect the anion efflux stimulated by cAMP (produced by application of Forskolin) was also tested. In addition, both whole-cell and single-channel (outside-out) patch clamp configurations were employed to directly determine the effects of cAMP (produced by addition of Forskolin), NS004, and the combination of cAMP and NS004 on whole-cell and single channel Cl^- currents in infected Vero cells under nominally sodium and potassium-free conditions. In all cases data were collected and analyzed by computer.

[7] = target: T1, wild-type CFTR; experiment: Two-electrode voltage clamp, Xenopus oocytes expressing wild-type CFTR; format: cell-based
[8] = system: ΔF508 CFTR; experiment: 125I efflux from Vero cells expressing ΔF508 CFTR; format: cell-based
[9] = system: ΔF508 mutant CFTR Cl- channels; format: cell-based
[10] = target: T1, wild-type CFTR; experiment: Whole-cell patch clamp, Vero cells expressing wild-type CFTR; format: cell-based
[11] = system: ΔF508 CFTR; experiment: Two-electrode voltage clamp, Xenopus oocytes expressing ΔF508 CFTR; format: cell-based
[12] = system: mock transfected cells
[13] = system: chloride channels; conditions: cited from earlier work
[14] = NS004 alone at the flux-experiment concentrations, Vero cells

O=c1[nH]c2cc(C(F)(F)F)ccc2n1-c1cc(Cl)ccc1O [NS004, 5-trifluoromethyl-1-(5-chloro-2-hydroxyphenyl)-1,3-dihydro-2H-benzimidazol-2-one]
whole cell inward and outward Cl- current [1, 14]: large to moderate increases; also recorded: smaller direct increase in whole cell Cl^- current | maximal stimulation of Cl- current by cAMP ([1]; cAMP plus NS004, Vero cells): potently potentiated the maximal stimulation of Cl^- current by cAMP; also recorded: profound potentiation of cAMP stimulation of Cl^- current | response time to peak of cAMP-stimulated Cl- current ([1]; cAMP plus NS004, Vero cells): greatly enhanced the response time to peak | 125I efflux relative to control ([2]; NS004 20 μM alone, Vero cells expressing CFTR (FIG. 2)): increased relative to control | 125I-flux over control values ([2]; NS004 alone, 0.1-20 micromolar concentration range, Vero cells, wild-type CFTR): increased modestly over control values; also recorded: only modest direct increases in ^125 I efflux | total anion flux ([2]; both cAMP and NS004, Vero cells, wild-type CFTR): did not significantly increase total anion flux | opening / open probability of single Cl- channels [3]: potently and directly opened Cl^- channels; also recorded: greatly increased the open probability | effect on whole cell Cl- current [4]: no effects | increase in Cl- current [5]: never seen | channel response to drug application [6]: did not respond to drug application | chloride current of the cAMP-stimulated channel ([7]; NS004 added to cAMP-stimulated wild-type CFTR, oocytes): only a marginal enhancement of chloride current; also recorded: only a small potentiation of cAMP-stimulated current | reversibility of the increase in Cl- current ([7]; NS004 alone, Xenopus oocytes, wild-type CFTR): rapidly reversible; also recorded: reversibly open | Cl- current ([7]; NS004 applied alone, unstimulated wild-type CFTR, Xenopus oocytes): large increase in Cl^- current; also recorded: great efficacy; also recorded: significant increase in the Cl^- current | potency (concentration range) for opening unstimulated wild-type CFTR ([7]; Xenopus oocytes): sub-micromolar to micromolar | time course of the increase in anion flux produced by cAMP ([8]; cAMP plus NS004, Vero cells, ΔF508 CFTR): reduced the slow time course | levels of 125I efflux attained ([8]; co-administration of cAMP and NS004, ΔF508 CFTR, compared with cAMP in wild-type CFTR cells): comparable to the efflux stimulated by cAMP in cells expressing wild-type CFTR | amplitude of the increase in 125I efflux produced by cAMP ([8]; coapplication of cAMP (Forskolin, 5 μM in FIG. 2) and NS004, Vero cells, ΔF508 CFTR): greatly potentiated; also recorded: greatly enhanced the amplitude; also recorded: robust potentiation of ^125 I efflux | 125I-flux ([8]; direct application of NS004 alone, Vero cells, ΔF508 CFTR): only marginally effected; also recorded: only modest direct increases in ^125 I efflux | opening / open probability of single Cl- channels [9]: rapid and reversible direct increase in the opening of these channels; also recorded: potently and directly opened Cl^- channels; also recorded: greatly increased the open probability | whole cell inward and outward Cl- current [10, 14]: large to moderate increases; also recorded: significant increase in the Cl^- current | whole cell Cl- current relative to cAMP alone ([10]; combination of cAMP stimulation and NS004, Vero cells): only marginal increases in current; also recorded: only a small potentiation of cAMP-stimulated current | chloride current ([11]; NS004 applied alone, oocytes expressing ΔF508 CFTR): only a small enhancement of chloride current; also recorded: smaller direct increase in whole cell Cl^- current | level of cAMP stimulation of channel activity (Cl- current) ([11]; NS004 simultaneously applied with cAMP and related agents, oocytes expressing ΔF508): greatly exacerbated the level of cAMP stimulation of channel activity; also recorded: profound potentiation of cAMP stimulation of Cl^- current | time course of cAMP-stimulated chloride current increase ([11]; both cAMP and NS004 present, oocytes expressing ΔF508): greatly reduced (response time enhanced) | response on 125I efflux [12]: no response

C1CCN2C[C@@H]3C[C@@H](CN4CCCC[C@@H]34)[C@H]2C1 [sparteine, dodecahydro-7,14-methano-2H,6H-di-pyrido[1,2-a;1',2'-e][1,5]diazocine]
effect on chloride channels ([13]; higher doses): blocking chloride channels | effect on chloride channels ([13]; low doses): activating chloride channels
